Consider 21 compounds from US11512079B2, “Heterocycle substituted pyridine derivative antifungal agents” (Amplyx Pharmaceuticals, Inc., priority 2017, dated 2022).

SMILES strings stand for the structures. ≈ marks a conversion by molar mass, not a printed value.

Common to all, as to assay type: cell-based
In one assay the test system is Candida albicans 90028. In words: In vitro antifungal assay (Example IX), microdilution broth, MIC. The conditions noted are these: minimum inhibitory concentration (≥50% inhibition), 35° C., 40-48 h, RPMI1640. In short, it runs like this: (§1)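 CLSI broth microdilution in RPMI1640 with 2.5×10^3 cells/mL and final compound concentrations of 2-0.0019 μg/mL (1% DMSO). C. albicans 90028 plates were incubated at 35° C. for 40-48 h and C. neoformans H99 for 72 h. MIC was read as minimum inhibitory concentration, verified at 600 nm.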
Background: Dilution methods test growth across graded concentrations, often in twofold steps.

Assay [1] relates to Cryptococcus neoformans H99. Described as above. The conditions noted are these: minimum inhibitory concentration (≥50% inhibition), 35° C., 72 h, RPMI1640. The method in brief: as §1
Another assay deals with Cryptococcus gattii. The assay is described as above. To be noted: minimum inhibitory concentration (≥50% inhibition), 35° C., 72 h (Cryptococcus), RPMI1640. In short, it runs like this:
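Broth microdilution in RPMI1640 with 2.5×10^3 cells/mL inoculum; final compound concentrations were 2–0.0019 μg/mL, with 1% DMSO. Cryptococcus plates were incubated at 35 °C for 72 h, and growth was read at 600 nm to give the MIC.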

Assay [2] concerns Aspergillus fumigatus MYA3626. Briefly: In vitro antifungal assay (Example IX), microdilution broth, MEC. The conditions noted are these: minimum effective concentration (shortening of hyphae), 35° C., 40-48 h, RPMI1640. The method in brief: (§2)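 Spore suspensions of A. fumigatus and R. pusillus adjusted to 1-2×10^4 spores/mL in RPMI1640 and exposed to compound dilutions prepared in DMSO, by broth microdilution. MEC taken as the lowest concentration shortening hyphae versus DMSO control wells, read as for echinocandins.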

Assay [3] has as its system Rhizomucor pusillus 46342. Described as above. To be noted: minimum effective concentration (shortening of hyphae), 35° C., 40-48 h, RPMI1640. The method in brief: as §2

As usually defined, the MIC is the lowest concentration that inhibits growth of the organism. One may read the minimal effective concentration as the smallest amount tested that counted as effective. Higher therefore signals weaker potency. Regarding `Nc1ncccc1-c1cc(Cc2ccc(OCc3ccn4ccnc4c3)nc2)no1` [compound 206, 3-(3-((6-(imidazo[1,2-a]pyridine-7-ylmethoxy)pyridin-3-yl)methyl)isoxazol-5-yl)pyridin-2-amine], the MIC (against Candida albicans 90028; in assay [1]; against Cryptococcus gattii) was > 1 µg/mL each time. The minimal effective concentration in assay [2] and in assay [3] was > 1 µg/mL in each case.
Take `COc1cc(COc2ccc(Cc3cc(-c4cccnc4N)on3)cn2)c(F)cn1` [compound 207, 3-(3-((6-((5-fluoro-2-methoxypyridin-4-yl)methoxy)pyridin-3-yl)methyl)isoxazol-5-yl)pyridin-2-amine]: the MIC against Candida albicans 90028 fell in the range of 0.1 to 1 µg/mL (≈ 0.245 to 2.45 µM); in assay [1] it was 0.01 to 0.1 µg/mL (≈ 0.0245 to 0.245 µM); against Cryptococcus gattii it was 0.1 to 1 µg/mL (≈ 0.245 to 2.45 µM). The values for the minimal effective concentration in assay [2] and in assay [3] were 0.01 to 0.1 µg/mL and > 1 µg/mL, respectively.
Regarding `Nc1ncccc1-c1cc(Cc2ccc(Cc3cccc(F)c3)cc2)no1` [compound 208, 3-(3-(4-(3-fluorobenzyl)benzyl)isoxazol-5-yl)pyridin-2-amine], the MIC (against Candida albicans 90028; in assay [1]; against Cryptococcus gattii) was 0.01 to 0.1 µg/mL (≈ 0.0278 to 0.278 µM) in each case. In addition, the minimal effective concentration was in the range of 0.01 to 0.1 µg/mL in assay [2] and 0.1 to 1 µg/mL in assay [3].
`CC(C)(O)c1cccc(Cc2ccc(Cc3cc(-c4cccnc4N)on3)cc2)c1` [compound 209, 2-(3-(4-((5-(2-aminopyridin-3-yl)isoxazol-3-yl)methyl)benzyl)phenyl)propan-2-ol]: the MIC (in the assay on Candida albicans 90028; in assay [1]; in the assay with Cryptococcus gattii) was > 1 µg/mL each time. In addition, the minimal effective concentration in assay [2] and in assay [3] was > 1 µg/mL each time.
For `Nc1ncccc1-c1cc(Cc2ccc(Cc3cc(F)cc(F)c3)cc2)no1` [compound 212, 3-(3-(4-(3,5-difluorobenzyl)benzyl)isoxazol-5-yl)pyridin-2-amine], the MIC in the assay on Candida albicans 90028 lay in the range of 0.1 to 1 µg/mL (≈ 0.265 to 2.65 µM); in assay [1], 0.01 to 0.1 µg/mL (≈ 0.0265 to 0.265 µM); in the assay with Cryptococcus gattii, 0.01 to 0.1 µg/mL (≈ 0.0265 to 0.265 µM). The minimal effective concentration in assay [2] and in assay [3] was 0.1 to 1 µg/mL in each case.
On to `Nc1ncccc1-c1cc(Cc2ccc(OCCCc3ccccc3)nc2)no1` [compound 213, 3-(3-((6-(3-phenylpropoxy)pyridin-3-yl)methyl)isoxazol-5-yl)pyridin-2-amine], for which the MIC (against Candida albicans 90028; in assay [1]; against Cryptococcus gattii) was 0.1 to 1 µg/mL (≈ 0.259 to 2.59 µM) throughout. Besides, the minimal effective concentration in assay [2] was 0.1 to 1 µg/mL; in assay [3] it was > 1 µg/mL.
`COc1cc(F)cc(Cc2ccc(Cc3cc(-c4cccnc4N)on3)cc2)c1` [compound 216, 3-(3-(4-(3-fluoro-5-methoxybenzyl)benzyl)isoxazol-5-yl)pyridin-2-amine]: the MIC (against Candida albicans 90028; in assay [1]; against Cryptococcus gattii) was 0.1 to 1 µg/mL (≈ 0.257 to 2.57 µM) in each case. Further, the results for the minimal effective concentration in assay [2] and in assay [3] were 0.1 to 1 µg/mL and > 1 µg/mL, respectively.
Take `Nc1ncccc1-c1cc(Cc2ccc(OCc3ccncc3Cl)nc2)no1` [compound 218, 3-(3-((6-((3-chloropyridin-4-yl)methoxy)pyridin-3-yl)methyl)isoxazol-5-yl)pyridin-2-amine]: the MIC against Candida albicans 90028 was 0.1 to 1 µg/mL (≈ 0.254 to 2.54 µM); in assay [1] it was > 1 µg/mL; against Cryptococcus gattii, > 1 µg/mL. The figures for the minimal effective concentration in assay [2] and in assay [3] were 0.1 to 1 µg/mL and > 1 µg/mL, respectively.
For the compound `Nc1ncccc1-c1cc(Cc2ccc(OCc3csc(Cl)n3)nc2)no1` [compound 220, 3-(3-((6-((2-chlorothiazol-4-yl)methoxy)pyridin-3-yl)methyl)isoxazol-5-yl)pyridin-2-amine], the MIC (with Candida albicans 90028; in assay [1]; in the assay with Cryptococcus gattii) was 0.1 to 1 µg/mL (≈ 0.25 to 2.5 µM) in each case. Moreover, the minimal effective concentration in assay [2] and in assay [3] was 0.1 to 1 µg/mL each time.
Consider `Nc1ncccc1-c1cc(Cc2ccc(OCc3ccc(Cl)s3)nc2)no1` [compound 221, 3-(3-((6-((5-chlorothiophen-2-yl)methoxy)pyridin-3-yl)methyl)isoxazol-5-yl)pyridin-2-amine], for which the minimal inhibitory concentration (MIC) fell in the range of 0.1 to 1 µg/mL (≈ 0.251 to 2.51 µM) in the assay on Candida albicans 90028, 0.01 to 0.1 µg/mL (≈ 0.0251 to 0.251 µM) in assay [1] and 0.1 to 1 µg/mL (≈ 0.251 to 2.51 µM) with Cryptococcus gattii. Moreover, the minimal effective concentration in assay [2] was in the range of 0.01 to 0.1 µg/mL; in assay [3], 0.1 to 1 µg/mL.
On to `Nc1ncccc1-c1cc(Cc2ccc(OCc3cccc(Cl)n3)nc2)no1` [compound 222, 3-(3-((6-((6-chloropyridin-2-yl)methoxy)pyridin-3-yl)methyl)isoxazol-5-yl)pyridin-2-amine], for which the MIC in the assay on Candida albicans 90028 lay within 0.01 to 0.1 µg/mL (≈ 0.0254 to 0.254 µM); in assay [1], 0.01 to 0.1 µg/mL (≈ 0.0254 to 0.254 µM); with Cryptococcus gattii, 0.1 to 1 µg/mL (≈ 0.254 to 2.54 µM). Also, the minimal effective concentration was 0.01 to 0.1 µg/mL in assay [2] and > 1 µg/mL in assay [3].
Turning to `Nc1ncccc1-c1cc(Cc2ccc(OCc3cccc(Br)n3)nc2)no1` [compound 223, 3-(3-((6-((6-bromopyridin-2-yl)methoxy)pyridin-3-yl)methyl)isoxazol-5-yl)pyridin-2-amine], the MIC was 0.01 to 0.1 µg/mL (≈ 0.0228 to 0.228 µM) in the assay with Candida albicans 90028, 0.1 to 1 µg/mL (≈ 0.228 to 2.28 µM) in assay [1] and 0.1 to 1 µg/mL (≈ 0.228 to 2.28 µM) against Cryptococcus gattii. Also, the minimal effective concentration was 0.01 to 0.1 µg/mL in assay [2] and > 1 µg/mL in assay [3].
On to `N#CCCOc1ccc(Cc2cc(-c3cccnc3N)on2)cn1` [compound 224, 3-((5-((5-(2-aminopyridin-3-yl)isoxazol-3-yl)methyl)pyridin-2-yl)oxy)propanenitrile], for which the MIC (with Candida albicans 90028; in assay [1]; against Cryptococcus gattii) was > 1 µg/mL in each case. Further, the minimal effective concentration in assay [2] and in assay [3] was > 1 µg/mL in each case.
For the compound `C#CCCOc1ccc(Cc2cc(-c3cccnc3N)on2)cn1` [compound 225, 3-(3-((6-(but-3-yn-1-yloxy)pyridin-3-yl)methyl)isoxazol-5-yl)pyridin-2-amine], the MIC (in the assay on Candida albicans 90028; in assay [1]; with Cryptococcus gattii) was 0.1 to 1 µg/mL (≈ 0.312 to 3.12 µM) in each case. Moreover, the figures for the minimal effective concentration in assay [2] and in assay [3] were 0.01 to 0.1 µg/mL and 0.1 to 1 µg/mL, respectively.
In the case of `Nc1ncccc1-c1cc(Cc2ccc(OCc3cccc(F)n3)nc2)no1` [compound 226, 3-(3-((6-((6-fluoropyridin-2-yl)methoxy)pyridin-3-yl)methyl)isoxazol-5-yl)pyridin-2-amine], the MIC against Candida albicans 90028 lay in the range of 0.01 to 0.1 µg/mL (≈ 0.0265 to 0.265 µM); in assay [1], 0.01 to 0.1 µg/mL (≈ 0.0265 to 0.265 µM); with Cryptococcus gattii it was 0.1 to 1 µg/mL (≈ 0.265 to 2.65 µM). Moreover, the minimal effective concentration was 0.01 to 0.1 µg/mL in assay [2] and > 1 µg/mL in assay [3].
For `[N-]=[N+]=Nc1cccc(NCc2ccc(Cc3cc(-c4cccnc4N)on3)cc2)c1` [compound 231, 3-(3-(4-(((3-azidophenyl)amino)methyl)benzyl)isoxazol-5-yl)pyridin-2-amine], the figures for the MIC (in the assay on Candida albicans 90028; in assay [1]; against Cryptococcus gattii) were 0.1 to 1 µg/mL (≈ 0.252 to 2.52 µM), 0.01 to 0.1 µg/mL (≈ 0.0252 to 0.252 µM) and 0.01 to 0.1 µg/mL (≈ 0.0252 to 0.252 µM), respectively. The values for the minimal effective concentration in assay [2] and in assay [3] were 0.01 to 0.1 µg/mL and 0.1 to 1 µg/mL, respectively.
Regarding `Nc1ncccc1-c1cc(Cc2ccc(Oc3cccc(Cl)n3)cc2)no1` [compound 234, 3-(3-(4-((6-chloropyridin-2-yl)oxy)benzyl)isoxazol-5-yl)pyridin-2-amine], the figures for the MIC (with Candida albicans 90028; in assay [1]; against Cryptococcus gattii) were 0.01 to 0.1 µg/mL (≈ 0.0264 to 0.264 µM), ≤ 0.01 µg/mL and ≤ 0.01 µg/mL, respectively. Besides, the minimal effective concentration in assay [2] was 0.01 to 0.1 µg/mL; in assay [3], 0.1 to 1 µg/mL.
Take `Nc1ncccc1-c1cc(Cc2ccc(Oc3ncccc3F)cc2)no1` [compound 235, 3-(3-(4-((3-fluoropyridin-2-yl)oxy)benzyl)isoxazol-5-yl)pyridin-2-amine]: the minimal inhibitory concentration (MIC) is 0.01 to 0.1 µg/mL (≈ 0.0276 to 0.276 µM) in the assay with Candida albicans 90028, ≤ 0.01 µg/mL in assay [1] and ≤ 0.01 µg/mL in the assay on Cryptococcus gattii. For the same compound, the minimal effective concentration in assay [2] is 0.01 to 0.1 µg/mL; in assay [3], 0.1 to 1 µg/mL.
Consider `Nc1ncccc1-c1cc(Cc2ccc(Oc3ncc(Cl)cc3F)cc2)no1` [compound 236, 3-(3-(4-((5-chloro-3-fluoropyridin-2-yl)oxy)benzyl)isoxazol-5-yl)pyridin-2-amine], for which the MIC (in the assay with Candida albicans 90028; in assay [1]; against Cryptococcus gattii) was 0.1 to 1 µg/mL (≈ 0.252 to 2.52 µM) in each case. For the same compound, the minimal effective concentration in assay [2] and in assay [3] was 0.1 to 1 µg/mL throughout.
`Nc1ncccc1-c1cc(Cc2ccc(Nc3c(F)cccc3F)nc2)no1` [compound 237, 5-((5-(2-aminopyridin-3-yl)isoxazol-3-yl)methyl)-N-(2,6-difluorophenyl)pyridin-2-amine]: the MIC (in the assay with Candida albicans 90028; in assay [1]; against Cryptococcus gattii) was 0.01 to 0.1 µg/mL (≈ 0.0264 to 0.264 µM) each time. For the same compound, the minimal effective concentration in assay [2] is 0.1 to 1 µg/mL; in assay [3] it was > 1 µg/mL.
Regarding `Nc1ncccc1-c1cc(Cc2ccc(Oc3cc(F)cc(F)n3)cc2)no1` [compound 239, 3-(3-(4-((4,6-difluoropyridin-2-yl)oxy)benzyl)isoxazol-5-yl)pyridin-2-amine], the MIC lay within 0.1 to 1 µg/mL (≈ 0.263 to 2.63 µM) against Candida albicans 90028, 0.01 to 0.1 µg/mL (≈ 0.0263 to 0.263 µM) in assay [1] and 0.01 to 0.1 µg/mL (≈ 0.0263 to 0.263 µM) with Cryptococcus gattii. Further, the minimal effective concentration in assay [2] and in assay [3] was 0.1 to 1 µg/mL throughout.
